Results on 31 molecules are retold here after patent US20240174647A1 (NEURON23, INC., priority 2022, published 2024).

The structures appear in SMILES notation.

This assay deals with wt human LRRK2, catalytic site (Homo sapiens (Human), UniProt Q5S007). The assay is described as follows: TR-FRET LanthaScreen Tb Kinase Activity Assay (LRRK2 kinase inhibition). The conditions noted are these: 2 nM wt human LRRK2, 400 nM fluorescein-ERM (LRRKtide) peptide, 38 μM ATP, 120 minutes at room temperature. The assay is classed as biochemical. The method, then: The compounds in Table 1 were tested for their inhibitory effect on LRRK2 kinase according to the following procedures.
The protocol for basic TR-FRET LanthaScreen Tb Kinase Activity Assay inhibitor studies were as follows. LanthaScreen Kinase Activity Assays (ThermoFisher/USA) to evaluate inhibitors were performed by addition of 100 nL of test compound in corresponding DMSO dilutions/5 μL of kinase/fluorescein-ERM(LRRKtide) peptide mixture, 5 μL of ATP into 384 well small volume plates. After incubation for 120 minutes at room temperature, the detection reagents containing Tb-anti-pLRRKtide antibody were added to monitor phosphrylation level of peptide. Then, after 60 min minutes incubation at room temperature plates were read in Envision. Data analysis of emission ratios was according to LanthaScreen Tb Kinase Activity Assay protocol.
Kinase and assay components were adjusted to final concentrations according to the kit protocol. For LRRK2: 2 nM wt human LRRK2, catalytic site, catalytic site (ThermoFisher/USA), 400 nM peptide, 38 μM ATP in 1× Kinase Buffer A.
Basic protocol for TR-FRET LanthaScreen Tb Kinase Activity Assay inhibitor studies involved two steps: • Enzymatic step: Addition of 100 nL of test compound in corresponding DMSO dilutions, 5 μL of kinase/substrate mixture, 5 μL of ATP into 384 well small volume plates. Incubation for 120 minutes at room temperature. • Detection step: Addition of 10 μL EDTA & antibody, read plate after 60 minutes. Data analysis of emission ratios according to KinEASE assay protocol.
Kinase and assay components were adjusted to final concentrations according to the kit protocol.
In the table below, activity is provided as follows: +++=IC50 less than 50 nM; ++=IC50 between 50 nM and 200 nM; +=IC50>=200 nM
In general terms: In TR-FRET formats the signal depends on donor and acceptor labels being close together.

wt human LRRK2, catalytic site, sequence (Q5S007 1879-2138): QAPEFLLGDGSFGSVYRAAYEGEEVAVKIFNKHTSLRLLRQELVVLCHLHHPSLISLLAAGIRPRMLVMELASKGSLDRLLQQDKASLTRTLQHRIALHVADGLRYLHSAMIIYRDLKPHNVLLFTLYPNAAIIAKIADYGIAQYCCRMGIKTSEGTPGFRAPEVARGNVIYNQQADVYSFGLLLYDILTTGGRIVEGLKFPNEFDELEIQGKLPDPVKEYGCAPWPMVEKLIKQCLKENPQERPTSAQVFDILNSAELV

As usually defined, the IC50 is the concentration needed to halve the response being measured. Low readings indicate greater potency in that assay, high ones weaker potency in that assay. The molecule `FC(F)(F)c1cnc(Nc2cccc3c2cnn3CC2CC2)nc1NC1CC1` [Example 168, N^4-cyclopropyl-N^2-(1-(cyclopropylmethyl)-1H-indazol-4-yl)-5-(trifluoromethyl)pyrimidine-2,4-diamine] registered an IC50 of under 50 nM. For `CS(=O)(=O)CCn1ncc2c(Nc3ncc(C(F)(F)F)c(N[C@H]4C[C@H]4F)n3)cccc21` [Example 198, N^4-((1S,2R)-2-fluorocyclopropyl)-N^2-(1-(2-(methylsulfonyl)ethyl)-1H-indazol-4-yl)-5-(trifluoromethyl)pyrimidine-2,4-diamine], the IC50 was under 50 nM. The result for `Cc1n[nH]c2nc(Nc3cccc4c3cnn4CCS(C)(=O)=O)nc(NC3CC3)c12` [Example 182, N^4-cyclopropyl-3-methyl-N^6-[1-(2-methylsulfonylethyl)indazol-4-yl]-1H-pyrazolo[3,4-d]pyrimidine-4,6-diamine] reads under 50 nM. Under `Cc1n[nH]c2nc(Nc3cccc4c3cnn4CC(C)(C)O)nc(NC3CC3)c12` [Example 204, 1-[4-[[4-(cyclopropylamino)-3-methyl-1H-pyrazolo[3,4-d]pyrimidin-6-yl]amino]indazol-1-yl]-2-methyl-propan-2-ol] stands under 50 nM; under `FC(F)(F)c1cnc(Nc2ccc3c4c2cnn4CCCO3)nc1NC1CC1` [Example 160, N^4-cyclopropyl-N^2-(9-oxa-1,2-diazatricyclo[6.4.1.04,13]trideca-2,4,6,8(13)-tetraen-5-yl)-5-(trifluoromethyl)pyrimidine-2,4-diamine], under 50 nM. Take `CNc1nc(Nc2cc3[nH]ncc3cc2OC(F)(F)F)ncc1C(F)(F)F` [Example 129, N4-methyl-N2-[5-(trifluoromethoxy)-1H-indazol-6-yl]-5-(trifluoromethyl) pyrimidine-2,4-diamine]: the IC50 is under 50 nM. In turn, `CNc1nc(Nc2ccc(C(C)CC(=O)N3CCOCC3)c3c2cnn3C)ncc1C(F)(F)F` (stereo not shown) [Example 60, 3-(1-methyl-4-((4-(methylamino)-5-(trifluoromethyl)pyrimidin-2-yl)amino)-1H-indazol-7-yl)-1-morpholinobutan-1-one] yielded an IC50 of under 50 nM. Under `CNc1nc(Nc2cc3[nH]ncc3cc2C(F)(F)F)ncc1C(F)(F)F` [Example 123, N^4-methyl-5-(trifluoromethyl)-N^2-[5-(trifluoromethyl)-1H-indazol-6-yl]pyrimidine-2,4-diamine] stands at least 200 nM; under `CNc1nc(Nc2ccc3[nH]ncc3c2)ncc1C(F)(F)F` [Example 72, N2-(1H-indazol-5-yl)-N4-methyl-5-(trifluoromethyl)pyrimidine-2,4-diamine], under 50 nM; under `CNc1nc(Nc2ccc3cn[nH]c3c2OC)ncc1C(F)(F)F` [Example 4, N2-(7-methoxy-1H-indazol-6-yl)-N4-methyl-5-(trifluoromethyl)pyrimidine-2,4-diamine], 50 to 200 nM. In turn, `CNc1nc(Nc2cc(C#N)cc3[nH]ncc23)ncc1C(F)(F)F` [Example 49, 4-((4-(methylamino)-5-(trifluoromethyl)pyrimidin-2-yl)amino)-1H-indazole-6-carbonitrile] showed an IC50 of under 50 nM. `CC(C)(CS(C)(=O)=O)n1ncc2c(Nc3ncc(C(F)(F)F)c(NC4CC4)n3)cccc21` [Example 195, N^4-cyclopropyl-N^2-(1-(2-methyl-1-(methylsulfonyl)propan-2-yl)-1H-indazol-4-yl)-5-(trifluoromethyl)pyrimidine-2,4-diamine] registered an IC50 of under 50 nM.

Consider `CC(C)(C#N)n1ncc2c(Nc3ncc(C(F)(F)F)c(NCC(F)(F)F)n3)cccc21` [Example 112, 2-methyl-2-(4-((4-((2,2,2-trifluoroethyl)amino)-5-(trifluoromethyl)pyrimidin-2-yl)amino)-1H-indazol-1-yl)propanenitrile], for which the IC50 is under 50 nM. The result for `CNc1nc(Nc2ccc(/C=C/C(=O)N3CCOCC3)c3[nH]ncc23)ncc1C(F)(F)F` [Example 56, (E)-3-(4-((4-(methylamino)-5-(trifluoromethyl)pyrimidin-2-yl)amino)-1H-indazol-7-yl)-1-morpholinoprop-2-en-1-one] reads under 50 nM; that for `CNc1nc(Nc2cc(C(C)C)cc3c2cnn3C)ncc1C(F)(F)F` [Example 43, N2-(6-isopropyl-1-methyl-1H-indazol-4-yl)-N4-methyl-5-(trifluoromethyl) pyrimidine-2,4-diamine], under 50 nM. The result for `FCCNc1nc(Nc2cccc3c2cnn3CC(F)F)ncc1C(F)(F)F` [Example 142, N^2-[1-(2,2-difluoroethyl)indazol-4-yl]-N^4-(2-fluoroethyl)-5-(trifluoromethyl) pyrimidine-2,4-diamine] reads under 50 nM; that for `CC(C)(O)Cn1ncc2c(Nc3ncc(C(F)F)c(NC4CC4)n3)ccc(F)c21` [Example 175, 1-[4-[[4-(cyclopropylamino)-5-(difluoromethyl)pyrimidin-2-yl]amino]-7-fluoro-indazol-1-yl]-2-methyl-propan-2-ol], under 50 nM; that for `CCNc1nc(Nc2cccc3c2cnn3CC(C)(C)O)nc2[nH]cc(Cl)c12` [Example 176, 1-[4-[[5-chloro-4-(ethylamino)-7H-pyrrolo[2,3-d]pyrimidin-2-yl]amino]indazol-1-yl]-2-methyl-propan-2-ol], under 50 nM.

Regarding `CNc1nc(Nc2c(C)[nH]c3c(C#N)cccc23)ncc1C(F)(F)F` [Example 66, 2-methyl-3-((4-(methylamino)-5-(trifluoromethyl)pyrimidin-2-yl)amino)-1H-indole-7-carbonitrile], the 50% inhibitory concentration (IC50) lay in the range of 50 to 200 nM. Turning to `N#CCn1ncc2c(Nc3ncc(C(F)(F)F)c(NC4CCCC4)n3)cccc21` [Example 95, 2-(4-((4-(cyclopentylamino)-5-(trifluoromethyl)pyrimidin-2-yl)amino)-1H-indazol-1-yl)acetonitrile], the IC50 is under 50 nM. The result for `CNc1nc(Nc2ccc3c4c2cnn4CCO3)ncc1C(F)(F)F` [Example 178, N^4-methyl-N^2-(9-oxa-1,2-diazatricyclo[6.3.1.04,12]dodeca-2,4,6,8(12)-tetraen-5-yl)-5-(trifluoromethyl)pyrimidine-2,4-diamine] reads under 50 nM. Under `CNc1nc(Nc2ccc3cnn(CC#N)c3c2)ncc1C(F)(F)F` [Example 16, 2-(6-((4-(methylamino)-5-(trifluoromethyl)pyrimidin-2-yl)amino)-1H-indazol-1-yl)acetonitrile] stands under 50 nM; under `O=S(=O)(C1CC1)n1ncc2c(Nc3ncc(C(F)(F)F)c(NC4CC4)n3)ccc(F)c21` [Example 153, N^4-cyclopropyl-N^2-(1-(cyclopropylsulfonyl)-7-fluoro-1H-indazol-4-yl)-5-(trifluoromethyl) pyrimidine-2,4-diamine], under 50 nM. Take `CS(=O)(=O)n1ncc2c(Nc3ncc(C(F)(F)F)c(NC4CC4)n3)cccc21` [Example 102, N4-cyclopropyl-N2-(1-(methylsulfonyl)-1H-indazol-4-yl)-5-(trifluoromethyl)pyrimidine-2,4-diamine]: the IC50 was under 50 nM. Under `CNc1nc(Nc2c(F)ccc3c2cnn3C)ncc1C(F)(F)F` [Example 38, N2-(5-fluoro-1-methyl-1H-indazol-4-yl)-N4-methyl-5-(trifluoromethyl) pyrimidine-2,4-diamine] stands 50 to 200 nM.

In the case of `CCc1cc2cn[nH]c2cc1Nc1ncc(C(F)(F)F)c(NC)n1` [Example 122, N2-(5-ethyl-1H-indazol-6-yl)-N4-methyl-5-(trifluoromethyl)pyrimidine-2,4-diamine], the IC50 was in the range of 50 to 200 nM. Under `CNc1nc(Nc2ccc(OC)c3[nH]ncc23)ncc1C(F)(F)F` [Example 28, N2-(7-methoxy-1H-indazol-4-yl)-N4-methyl-5-(trifluoromethyl)pyrimidine-2,4-diamine] stands under 50 nM; under `CNc1nc(Nc2c(F)ccc3[nH]ncc23)ncc1C(F)(F)F` [Example 22, N2-(5-fluoro-1H-indazol-4-yl)-N4-methyl-5-(trifluoromethyl)pyrimidine-2,4-diamine], 50 to 200 nM; under `CCNc1nc(Nc2cccc3c2cnn3S(C)(=O)=O)ncc1Cl` [Example 152, 5-chloro-N4-ethyl-N^2-(1-(methylsulfonyl)-1H-indazol-4-yl)pyrimidine-2,4-diamine], under 50 nM.

The molecule `CC(C)(C#N)Cn1ncc2c(Nc3ncc(C(F)(F)F)c(NC4CC4)n3)cccc21` [Example 200, 3-[4-[[4-(cyclopropylamino)-5-(trifluoromethyl)pyrimidin-2-yl]amino]indazol-1-yl]-2,2-dimethyl-propanenitrile] displayed an IC50 of under 50 nM. The result for `CNc1nc(Nc2ncn3ccccc23)ncc1C(F)(F)F` [Example 117, N^2-(imidazo[1,5-a]pyridin-1-yl)-N4-methyl-5-(trifluoromethyl)pyrimidine-2,4-diamine] reads at least 200 nM.
